Laboratory results reported in patent US20140297199A1, “DRUG SCREENING METHOD AND USES THEREOF” (COLD SPRING HARBOR LABORATORY, priority 2011, published 2014).
Entries after “also recorded” stand apart in the source; their conditions may differ.

Tested on: c-fos-GFP expression in the mouse brain
Assay: c-fos-GFP pharmacomaps of three antipsychotics at a moderate dosage (Example 9)
Conditions: 5 mouse brains per drug; for brain regions activated (pharmacomap): haloperidol 0.25 mg/kg, risperidone 1.0 mg/kg, aripiprazole 1.0 mg/kg, vs saline; for c-fos-GFP activation, Anterior cingulate cortex (ACAd) / c-fos-GFP activation, Anterior cingulate cortex (ACAv) / c-fos-GFP activation, Basal, Central, Cortic. Amydgala (AMG) / c-fos-GFP activation, Bed nucleus of Stria Terminalis (BST) / c-fos-GFP activation, Caudate-putamen (CP, dorso-medial) / c-fos-GFP activation, Caudate-putamen (CP, ventro-medial) / c-fos-GFP activation, Caudoputamen (CP, dorsolateral) / c-fos-GFP activation, Caudoputamen (CP, ventrolateral) / c-fos-GFP activation, Central medial thalamic nucleus / c-fos-GFP activation, Claustrum (CLA) / c-fos-GFP activation, Dorsomedial hypoth. (HYP) / c-fos-GFP activation, Gostatory Cx (GU) / c-fos-GFP activation, Hippocampus: CA1, CA2, CA3 (HF) / c-fos-GFP activation, Hippocampus: DG / c-fos-GFP activation, Hypothalamus, ventromedial nuclei / c-fos-GFP activation, Infralimbic cortex (IL) / c-fos-GFP activation, Insular area, agranular / c-fos-GFP activation, Lateral Septum (LS) / c-fos-GFP activation, Lateral Spetal Nucl, dorsal part / c-fos-GFP activation, Midline Thalamus (Nucl Reuniens, RE) / c-fos-GFP activation, Midline Thalamus (PVT) / c-fos-GFP activation, Motor area, primary (MOp) / c-fos-GFP activation, Motor area, secondary (MOs) / c-fos-GFP activation, Nucleus Accumbens (ACB), core / c-fos-GFP activation, Nucleus Accumbens (ACB), shell / c-fos-GFP activation, Nucleus Accumbens (ACB), whole / c-fos-GFP activation, Olfactory tubercle (OT) / c-fos-GFP activation, Orbital cortex ventral (VO) / c-fos-GFP activation, Orbital cx (ORB), lateral / c-fos-GFP activation, Orbital cx (ORB), medial / c-fos-GFP activation, Piriform cx (PIR) / c-fos-GFP activation, Prelimbic cx (PL) / c-fos-GFP activation, RSPd, v, d and agl / c-fos-GFP activation, Red nucleus (RN) / c-fos-GFP activation, Somatosensory cx, primary / c-fos-GFP activation, Striatum, ventro-lateral / c-fos-GFP activation, Superior Colliculus (SC) / c-fos-GFP activation, Temporal cortex / c-fos-GFP activation, Ventromedial Thalamus (caudally) / c-fos-GFP activation, Zona Inserta: haloperidol 0.25, risperidone 1.0, aripiprazole 1.0 mg/kg, vs saline-injected control

## O=C1CCc2ccc(OCCCCN3CCN(c4cccc(Cl)c4Cl)CC3)cc2N1 [aripiprazole]
  brain regions activated (pharmacomap): activated a partially overlapping pattern, with more cortical areas, including prominent activation of auditory association and entorhinal areas; also recorded: Parts of the amygdala (AMG), hippocampal formation (HF), and midline thalamus (PVT and RE) also showed activation
  c-fos-GFP activation, Anterior cingulate cortex (ACAd): up
  c-fos-GFP activation, Anterior cingulate cortex (ACAv): up
  c-fos-GFP activation, Basal, Central, Cortic. Amydgala (AMG): up
  c-fos-GFP activation, Bed nucleus of Stria Terminalis (BST): 0
  c-fos-GFP activation, Caudate-putamen (CP, dorso-medial): 0
  c-fos-GFP activation, Caudate-putamen (CP, ventro-medial): 0
  c-fos-GFP activation, Caudoputamen (CP, dorsolateral): up
  c-fos-GFP activation, Caudoputamen (CP, ventrolateral): 0
  c-fos-GFP activation, Central medial thalamic nucleus: up
  c-fos-GFP activation, Claustrum (CLA): up
  c-fos-GFP activation, Dorsomedial hypoth. (HYP): 0
  c-fos-GFP activation, Gostatory Cx (GU): up
  c-fos-GFP activation, Hippocampus: CA1, CA2, CA3 (HF): up
  c-fos-GFP activation, Hippocampus: DG: down
  c-fos-GFP activation, Hypothalamus, ventromedial nuclei: 0
  c-fos-GFP activation, Infralimbic cortex (IL): up
  c-fos-GFP activation, Insular area, agranular: up
  c-fos-GFP activation, Lateral Septum (LS): 0
  c-fos-GFP activation, Lateral Spetal Nucl, dorsal part: up
  c-fos-GFP activation, Midline Thalamus (Nucl Reuniens, RE): up
  c-fos-GFP activation, Midline Thalamus (PVT): up
  c-fos-GFP activation, Motor area, primary (MOp): up
  c-fos-GFP activation, Motor area, secondary (MOs): up
  c-fos-GFP activation, Nucleus Accumbens (ACB), core: up
  c-fos-GFP activation, Nucleus Accumbens (ACB), shell: up
  c-fos-GFP activation, Nucleus Accumbens (ACB), whole: 0
  c-fos-GFP activation, Olfactory tubercle (OT): up
  c-fos-GFP activation, Orbital cortex ventral (VO): 0
  c-fos-GFP activation, Orbital cx (ORB), lateral: up
  c-fos-GFP activation, Orbital cx (ORB), medial: up
  c-fos-GFP activation, Piriform cx (PIR): 0
  c-fos-GFP activation, Prelimbic cx (PL): up
  c-fos-GFP activation, RSPd, v, d and agl: up
  c-fos-GFP activation, Red nucleus (RN): down
  c-fos-GFP activation, Somatosensory cx, primary: up
  c-fos-GFP activation, Striatum, ventro-lateral: up
  c-fos-GFP activation, Superior Colliculus (SC): up
  c-fos-GFP activation, Temporal cortex: up
  c-fos-GFP activation, Ventromedial Thalamus (caudally): up
  c-fos-GFP activation, Zona Inserta: up

## Cc1nc2n(c(=O)c1CCN1CCC(c3noc4cc(F)ccc34)CC1)CCCC2 [risperidone]
  brain regions activated (pharmacomap): activated the prelimbic (PL), orbital (ORB), piriform (PIR) and gustatory (GU) cortices, the dorsal and ventral CP, ACB, claustrum (CLA), and superior colliculus (SC)
  c-fos-GFP activation, Anterior cingulate cortex (ACAd): 0
  c-fos-GFP activation, Anterior cingulate cortex (ACAv): 0
  c-fos-GFP activation, Basal, Central, Cortic. Amydgala (AMG): 0
  c-fos-GFP activation, Bed nucleus of Stria Terminalis (BST): 0
  c-fos-GFP activation, Caudate-putamen (CP, dorso-medial): 0
  c-fos-GFP activation, Caudate-putamen (CP, ventro-medial): 0
  c-fos-GFP activation, Caudoputamen (CP, dorsolateral): up
  c-fos-GFP activation, Caudoputamen (CP, ventrolateral): up
  c-fos-GFP activation, Central medial thalamic nucleus: 0
  c-fos-GFP activation, Claustrum (CLA): up
  c-fos-GFP activation, Dorsomedial hypoth. (HYP): 0
  c-fos-GFP activation, Gostatory Cx (GU): up
  c-fos-GFP activation, Hippocampus: CA1, CA2, CA3 (HF): 0
  c-fos-GFP activation, Hippocampus: DG: 0
  c-fos-GFP activation, Hypothalamus, ventromedial nuclei: down
  c-fos-GFP activation, Infralimbic cortex (IL): 0
  c-fos-GFP activation, Insular area, agranular: 0
  c-fos-GFP activation, Lateral Septum (LS): 0
  c-fos-GFP activation, Lateral Spetal Nucl, dorsal part: 0
  c-fos-GFP activation, Midline Thalamus (Nucl Reuniens, RE): 0
  c-fos-GFP activation, Midline Thalamus (PVT): 0
  c-fos-GFP activation, Motor area, primary (MOp): 0
  c-fos-GFP activation, Motor area, secondary (MOs): 0
  c-fos-GFP activation, Nucleus Accumbens (ACB), core: up
  c-fos-GFP activation, Nucleus Accumbens (ACB), shell: 0
  c-fos-GFP activation, Nucleus Accumbens (ACB), whole: 0
  c-fos-GFP activation, Olfactory tubercle (OT): 0
  c-fos-GFP activation, Orbital cortex ventral (VO): up
  c-fos-GFP activation, Orbital cx (ORB), lateral: up
  c-fos-GFP activation, Orbital cx (ORB), medial: up
  c-fos-GFP activation, Piriform cx (PIR): up
  c-fos-GFP activation, Prelimbic cx (PL): down
  c-fos-GFP activation, RSPd, v, d and agl: 0
  c-fos-GFP activation, Red nucleus (RN): 0
  c-fos-GFP activation, Somatosensory cx, primary: 0
  c-fos-GFP activation, Striatum, ventro-lateral: 0
  c-fos-GFP activation, Superior Colliculus (SC): 0
  c-fos-GFP activation, Temporal cortex: 0
  c-fos-GFP activation, Ventromedial Thalamus (caudally): 0
  c-fos-GFP activation, Zona Inserta: 0
